Results taken from PMC6211316, “Synthesis and biological evaluation of 3-arylcoumarin derivatives as potential anti-diabetic agents” (Journal of Enzyme Inhibition and Medicinal Chemistry, 2018).

Columns and labels:
[1] = DPPH free radical scavenging; conditions: mean ± SD (n = 3)
Procedure, shortened: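 Sample solutions at various concentrations mixed 1:1 with DPPH (0.04 mg/mL) and reacted 30 min at room temperature; absorbance read at 517 nm against ethanol blank, corrected for sample absorbance. Scavenging % calculated versus DPPH alone, triplicate measurements, IC50 derived.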

STZ-diabetic mice = assay: Acute hypoglycemic assay in STZ-diabetic mice; type: in vivo; conditions: for highest anti-hyperglycemic effect: STZ-diabetic mice; for Blood glucose concentration / % Variation of glycemia: STZ-diabetics mice
Procedure, shortened: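 Mice made diabetic by single i.p. STZ 110 mg/kg in citrate buffer pH 4.5; blood glucose >11 mM after 7 days required. After 12 h fast, compounds at 10, 30, 100 mg/kg given intragastrically in 0.05% Tween-80/saline; blood glucose read at 0, 1.5, 3, 5, 7, 9 h post-dose.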

normal mice = assay: Acute hypoglycemic assay in normal mice; type: in vivo
Procedure, shortened: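 Mice fasted 12 h with free water access, then dosed intragastrically with compounds at 10, 30 and 100 mg/kg suspended in 0.05% Tween-80 in saline; vehicle-only controls. Blood glucose measured at 0, 1.5, 3, 5, 7 and 9 h post-dose.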

[2] = test system: STZ-induced diabetic mice; assay: Daily treatment for 16 days in STZ-induced diabetic mice; type: in vivo
Experimental: Thereafter, the target compounds 11, 17, 35, and glibenclamide were administered once (9 a.m.) on a daily basis, for a period of 16 days, to STZ-induced diabetic mice which were divided into five groups (A-E). A six group of normal mice (Group F) was used as a control. Groups E (diabetic control) and F received vehicle (0.05% Tween-80 in saline solution) per os for 16 days. Group A received glibenclamide (10 mg/kg of bw daily). Groups B–D received different treatments: B, compound 11 (30 mg/kg of bw daily); C, compound 17 (30 mg/kg of bw daily); D, compound 35 (30 mg/kg of bw daily). All tested materials were suspended in the same vehicle and administered per os daily for 16 days. The animals were housed under standard laboratory conditions and maintained with free access to water and food during all the experiment. Blood glucose concentration on animals of diabetic (Groups A–E) and control group (Group F) was estimated at days 1, 4, 7, 10, 13, and 16. The bw of the animals were measured concomitantly to the blood glucose analyses. All experiments were carried out using six animals per group.

COc1ccc(-c2cc3c(O)cc(O)cc3oc2=O)cc1 [Compound 35, 5,7-Dihydroxy-3-(4-methoxyphenyl)-coumarin]
IC50 [1]: 155 ± 10.5 µM
hypoglycemic effect (STZ-diabetic mice; STZ-diabetic animals, 30 mg/kg of bw, started from 3 h and persisted throughout the experiment): > 50%
highest anti-hyperglycemic effect (STZ-diabetic mice; 10 mg/kg, at 7 h): ~73.66%
highest anti-hyperglycemic effect (STZ-diabetic mice; 30 mg/kg, at 9 h): ~74.54%
Blood glucose concentration (STZ-diabetic mice; 10 mg/kg of bw per os, 0h): 20.5 ± 7.1 mM
% Variation of glycemia (STZ-diabetic mice; 10 mg/kg of bw per os, 1.5h): (−36.10) %
Blood glucose concentration (STZ-diabetic mice; 10 mg/kg of bw per os, 1.5h): 13.1 ± 6.4 mM
% Variation of glycemia (STZ-diabetic mice; 10 mg/kg of bw per os, 3h): (−47.81) %
Blood glucose concentration (STZ-diabetic mice; 10 mg/kg of bw per os, 3h): 10.7 ± 5.7 mM
% Variation of glycemia (STZ-diabetic mice; 10 mg/kg of bw per os, 5h): (−72.68) %
Blood glucose concentration (STZ-diabetic mice; 10 mg/kg of bw per os, 5h): 5.6 ± 3.1 mM
% Variation of glycemia (STZ-diabetic mice; 10 mg/kg of bw per os, 7h): (−73.66) %
Blood glucose concentration (STZ-diabetic mice; 10 mg/kg of bw per os, 7h): 5.4 ± 3.4 mM
% Variation of glycemia (STZ-diabetic mice; 10 mg/kg of bw per os, 9h): (−72.20) %
Blood glucose concentration (STZ-diabetic mice; 10 mg/kg of bw per os, 9h): 5.7 ± 3.1 mM
Blood glucose concentration (STZ-diabetic mice; 30 mg/kg of bw per os, 0h): 21.6 ± 4.4 mM
% Variation of glycemia (STZ-diabetic mice; 30 mg/kg of bw per os, 1.5h): (−44.44) %
Blood glucose concentration (STZ-diabetic mice; 30 mg/kg of bw per os, 1.5h): 12.0 ± 3.7 mM
% Variation of glycemia (STZ-diabetic mice; 30 mg/kg of bw per os, 3h): (−51.39) %
Blood glucose concentration (STZ-diabetic mice; 30 mg/kg of bw per os, 3h): 10.5 ± 5.1 mM
% Variation of glycemia (STZ-diabetic mice; 30 mg/kg of bw per os, 5h): (−70.83) %
Blood glucose concentration (STZ-diabetic mice; 30 mg/kg of bw per os, 5h): 6.3 ± 4.3 mM
% Variation of glycemia (STZ-diabetic mice; 30 mg/kg of bw per os, 7h): (−73.61) %
Blood glucose concentration (STZ-diabetic mice; 30 mg/kg of bw per os, 7h): 5.7 ± 6.7 mM
% Variation of glycemia (STZ-diabetic mice; 30 mg/kg of bw per os, 9h): (−74.54) %
Blood glucose concentration (STZ-diabetic mice; 30 mg/kg of bw per os, 9h): 5.5 ± 5.2 mM
Blood glucose concentration (STZ-diabetic mice; 100 mg/kg of bw per os, 0h): 20.3 ± 4.4 mM
% Variation of glycemia (STZ-diabetic mice; 100 mg/kg of bw per os, 1.5h): (−25.62) %
Blood glucose concentration (STZ-diabetic mice; 100 mg/kg of bw per os, 1.5h): 15.1 ± 5.0 mM
% Variation of glycemia (STZ-diabetic mice; 100 mg/kg of bw per os, 3h): (−48.28) %
Blood glucose concentration (STZ-diabetic mice; 100 mg/kg of bw per os, 3h): 10.5 ± 4.9 mM
% Variation of glycemia (STZ-diabetic mice; 100 mg/kg of bw per os, 5h): (−64.53) %
Blood glucose concentration (STZ-diabetic mice; 100 mg/kg of bw per os, 5h): 7.2 ± 2.6 mM
% Variation of glycemia (STZ-diabetic mice; 100 mg/kg of bw per os, 7h): (−64.53) %
Blood glucose concentration (STZ-diabetic mice; 100 mg/kg of bw per os, 7h): 7.2 ± 3.9 mM
% Variation of glycemia (STZ-diabetic mice; 100 mg/kg of bw per os, 9h): (−68.47) %
Blood glucose concentration (STZ-diabetic mice; 100 mg/kg of bw per os, 9h): 6.4 ± 2.0 mM
Blood glucose concentration (normal mice; 10 mg/kg of bw per os, 0h): 10.8 ± 0.6 mM
% Variation of glycemia (normal mice; 10 mg/kg of bw per os, 1.5h): (−14.55) %
Blood glucose concentration (normal mice; 10 mg/kg of bw per os, 1.5h): 9.2 ± 0.6 mM
% Variation of glycemia (normal mice; 10 mg/kg of bw per os, 3h): (−24.15) %
Blood glucose concentration (normal mice; 10 mg/kg of bw per os, 3h): 8.2 ± 0.5 mM
% Variation of glycemia (normal mice; 10 mg/kg of bw per os, 5h): (−25.70) %
Blood glucose concentration (normal mice; 10 mg/kg of bw per os, 5h): 8.0 ± 0.4 mM
% Variation of glycemia (normal mice; 10 mg/kg of bw per os, 7h): (−31.27) %
Blood glucose concentration (normal mice; 10 mg/kg of bw per os, 7h): 7.4 ± 0.5 mM
% Variation of glycemia (normal mice; 10 mg/kg of bw per os, 9h): (−34.06) %
Blood glucose concentration (normal mice; 10 mg/kg of bw per os, 9h): 7.1 ± 0.3 mM
Blood glucose concentration (normal mice; 30 mg/kg of bw per os, 0h): 10.5 ± 0.9 mM
% Variation of glycemia (normal mice; 30 mg/kg of bw per os, 1.5h): (−17.72) %
Blood glucose concentration (normal mice; 30 mg/kg of bw per os, 1.5h): 8.7 ± 1.0 mM
% Variation of glycemia (normal mice; 30 mg/kg of bw per os, 3h): (−31.65) %
Blood glucose concentration (normal mice; 30 mg/kg of bw per os, 3h): 7.2 ± 0.8 mM
% Variation of glycemia (normal mice; 30 mg/kg of bw per os, 5h): (−39.24) %
Blood glucose concentration (normal mice; 30 mg/kg of bw per os, 5h): 6.4 ± 1.0 mM
% Variation of glycemia (normal mice; 30 mg/kg of bw per os, 7h): (−44.94) %
Blood glucose concentration (normal mice; 30 mg/kg of bw per os, 7h): 5.8 ± 0.7 mM
% Variation of glycemia (normal mice; 30 mg/kg of bw per os, 9h): (−44.30) %
Blood glucose concentration (normal mice; 30 mg/kg of bw per os, 9h): 5.9 ± 0.6 mM
Blood glucose concentration (normal mice; 100 mg/kg of bw per os, 0h): 10.6 ± 0.4 mM
% Variation of glycemia (normal mice; 100 mg/kg of bw per os, 1.5h): (−18.18) %
Blood glucose concentration (normal mice; 100 mg/kg of bw per os, 1.5h): 8.7 ± 0.5 mM
% Variation of glycemia (normal mice; 100 mg/kg of bw per os, 3h): (−40.44) %
Blood glucose concentration (normal mice; 100 mg/kg of bw per os, 3h): 6.3 ± 1.0 mM
% Variation of glycemia (normal mice; 100 mg/kg of bw per os, 5h): (−49.22) %
Blood glucose concentration (normal mice; 100 mg/kg of bw per os, 5h): 5.4 ± 0.6 mM
% Variation of glycemia (normal mice; 100 mg/kg of bw per os, 7h): (−55.17) %
Blood glucose concentration (normal mice; 100 mg/kg of bw per os, 7h): 4.8 ± 0.6 mM
% Variation of glycemia (normal mice; 100 mg/kg of bw per os, 9h): (−57.05) %
Blood glucose concentration (normal mice; 100 mg/kg of bw per os, 9h): 4.6 ± 0.7 mM
bw loss in hyperglycemic mice ([2]; 30 mg/kg of bw daily per os, 16 days): prevented bw loss
blood glucose levels at the end of the experiment ([2]; 30 mg/kg of bw daily, 16 days): restored blood glucose levels to near normal values
long-term anti-hyperglycemic effect (blood glucose levels) ([2]; 30 mg/kg of bw oral, once a day, for 16 days): induced obviously anti-hyperglycemic effect
